The target of data set [1] is T1, Recombinant human BACE1 (Homo sapiens, UniProt P56817).
T1 construct: purchased R&D Systems
The experiment in a line: Assay of BACE1 inhibitory activity: 96-well. The data set is classed as biochemical. Conditions: Assay format 96-well. As to the method: 48.5 μL of substrate peptide solution (Biotin-XSEVNLDAEFRHDSGC-Eu: X=ε-amino-n-capronic acid. Eu=Europium cryplate) was added to each well of 96-hole half-area plate (a black plate: Costar), and after addition of 0.5 μl of the compound of the present invention (DMSO solution) and 1 μl of Recombinant human BACE1(R&D Systems), the reaction mixture was incubated at 30° C. for 3.5 hours. The substrate peptide was synthesized by reacting Cryptate TBPCOOH mono SMP (CIS bio international) with Biotin-XSEVNLDAEFRHDSGC (Peptide Institute, Inc.).
After the incubation for reaction, 50 μl of 8.0 μg/ml Streptavidin-XL665 (CIS bio international) dissolved in phosphate buffer (150 mmol/L […]—KH2PO4, pH 7.0, 0.008% Triton X-100, 0.8 mol/L KF) was added to each well and left stand at 30° C. for 45 minutes.

The subject of data set [2] is Aβ production in neuroblastoma SH-SY5Y cells (SH/APPwt). The experiment in a line: β-amyloid (Aβ) production inhibitory effect in cell: 96-well. Format: cell-based. Conditions: Homo sapiens, Assay format 96-well. The procedure: Neuroblastoma SH-SY5V cells (SH/APPwt) with human wild-type R-APP excessively expressed therein were prepared at 8×10^5 cells/mL, and 150 μl portions thereof were inoculated into each well of a 96-well culture plate (Falcon). The cells were cultured for 2 hours at […]. in a 5% gaseous carbon dioxide incubator. […] Namely, the final DMSO concentration was 1%, and the amount of the cell culture was 200 μl. After the incubation was performed for 24 hours from the addition of the test compound, 100 μl of the culture supernatant was collected from each fraction. The amount of the Aβ in each fraction was measured. The Aβ amount was measured as follows. 10 μl of a homogeneous time resolved fluorescence (HTRF) measurement reagent (Amyloid β1-40 peptide: CIS bio international) and 10 μof the culture supernatant were put into a 384-well half area microplate (black microplate, Costar) and mixed with each other, and then left standing overnight at 4° C. while the light was shielded.

In data set [3] the target is T2, CYP1A2 (Homo sapiens, UniProt P05177).
T2 construct: The commercially available pooled human liver microsomes are used as an enzyme resource; from tissue; host or cells: pooled human liver microsomes
T2 sequence (P05177 1-516): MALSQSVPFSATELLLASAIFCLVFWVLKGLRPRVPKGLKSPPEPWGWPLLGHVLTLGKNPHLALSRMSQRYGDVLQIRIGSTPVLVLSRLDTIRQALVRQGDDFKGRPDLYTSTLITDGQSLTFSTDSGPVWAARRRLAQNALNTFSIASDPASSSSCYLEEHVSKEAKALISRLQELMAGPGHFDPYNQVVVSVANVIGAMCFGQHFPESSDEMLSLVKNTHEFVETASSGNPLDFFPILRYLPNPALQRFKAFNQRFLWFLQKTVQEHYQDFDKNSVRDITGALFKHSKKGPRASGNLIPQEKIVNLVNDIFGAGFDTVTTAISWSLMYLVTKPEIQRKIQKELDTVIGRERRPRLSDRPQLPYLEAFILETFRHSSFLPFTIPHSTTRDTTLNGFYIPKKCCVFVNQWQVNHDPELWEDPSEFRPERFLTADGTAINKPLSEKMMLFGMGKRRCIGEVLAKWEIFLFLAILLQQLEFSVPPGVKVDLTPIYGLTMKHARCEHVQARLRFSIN
The experiment in a line: CYP inhibition test (CYP1A2). The data set is classed as in vitro ADME. Conditions: pooled human liver microsomes; 7-ethoxyresorufin O-deethylation. An outline of the steps:
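Inhibition of CYP1A2 was measured in commercially available pooled human liver microsomes (0.2 mg protein/mL) using 7-ethoxyresorufin O-deethylation with 0.5 μmol/L ethoxyresorufin. Test compound at 1, 5, 10, 20 μmol/L in […] Hepes buffer was incubated at 37° C. after NADPH addition; methanol/acetonitrile=1/1 (v/v) stopped the reaction, and resorufin was read fluorescently.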

The target of data set [4] is T3, CYP2C9 (Homo sapiens, UniProt P11712).
T3 construct: The commercially available pooled human liver microsomes are used as an enzyme resource; from tissue; host or cells: pooled human liver microsomes
As to the kind of experiment: CYP inhibition test (CYP2C9). Format: in vitro ADME. The following applies: pooled human liver microsomes; tolbutamide methyl-hydroxylation. An outline of the steps:
(§1)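 Pooled human liver microsomes (0.2 mg protein/mL) with compound at 1, 5, 10 and 20 μmol/L and NADPH, at 37 °C. Marker substrates: dextromethorphan 5 μmol/L (2D6), terfenadine 1 μmol/L (3A4), S-mephenytoin 50 μmol/L (2C19), tolbutamide 100 μmol/L (2C9). Metabolites were measured by LC/MS/MS, and IC50 was derived by logistic fit of remaining activity against the DMSO control.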
In general terms: Liver microsomes are a subcellular fraction often used to study metabolism.

Data set [5] deals with T4, CYP2C19 (Homo sapiens, UniProt P33261).
T4 construct: The commercially available pooled human liver microsomes are used as an enzyme resource; from tissue; host or cells: pooled human liver microsomes
The experiment in a line: CYP inhibition test (CYP2C19). The following applies: pooled human liver microsomes; mephenytoin 4′-hydroxylation. Format: in vitro ADME. In a few lines: as §1

In data set [6] the target is T5, CYP2D6 (Homo sapiens, UniProt P10635).
T5 construct: The commercially available pooled human liver microsomes are used as an enzyme resource; from tissue; host or cells: pooled human liver microsomes
The experiment in a line: CYP inhibition test (CYP2D6). Format: in vitro ADME. The following applies: pooled human liver microsomes; dextromethorphan O-demethylation. From the text: The CYP inhibition test is a test to assess the inhibitory effect of a compound of the present invention towards typical substrate metabolism reactions on CYP enzymes in human liver microsomes. The marker reactions on human main five CYP enzymes (CYP1A2, 2C9, 2C19, 2D6, and 3A4) are used as follows: 7-ethoxyresorufin O-deethylation (CYP1A2), tolbutamide methyl-hydroxylation (CYP2C9), mephenytoin 4′-hydroxylation (CYP2C19), dextromethorphan O-demethylation (CYP2D6), and terfenadine hydroxylation (CYP3A4). The commercially available pooled human liver microsomes are used as an enzyme resource.
The reaction conditions were as follows: substrate, 0.5 μmol/L ethoxyresorufin (CYP1A2), 100 μmol/L tolbutamide (CYP2C9), 50 μmol/L, S-mephenytoin (CYP2C19), 5 μmol/L dextromethorphan (CYP2D6), 1 μmol/L terfenadine (CYP3A4): reaction time, 15 minutes: reaction temperature, 37° C.; enzyme, pooled human liver microsomes 0.2 mg protein/mL; concentrations of the compound of the present invention, 1, 5, 10, 20 μmol/L (four points).
Five kinds of substrates, human liver microsomes, and a compound solution of the present invention in […] Hepes buffer were added to a 96-well plate at the composition as described above as a reaction solution. NADPH as a cofactor was added to this 96-well plate in order to initiate metabolism reactions. After the incubation at 37° C.for […], a methanol/acetonitrile=1/1 (v/v) solution was added to stop the reaction. After the centrifugation at 3000 rpm for 15 minutes, resorufin (CYP1A2 metabolite) in the supernatant was quantified by a fluorescent plate reader, and hydroxytolbutamide (CYP2C9 metabolite), 4′-hydroxymephenytoin (CYP2C19 metabolite), dextrorphan (CYP2D6 metabolite), and terfenadine alcohol metabolite (CYP3A4 metabolite) in the supernatant were quantified by LC/MS/MS.
The sample adding DMSO to a reaction system instead of compound of the present invention solution was adopted as a control (100%) because DMSO was used as a solvent to dissolve a compound of the present invention. Remaining activity (%) was calculated at each concentration of a compound of the present invention, and IC50 value was calculated by reverse presumption by a logistic model using a concentration and an inhibition rate.

For data set [7], the target named is T6, CYP3A4 (Homo sapiens, UniProt P08684).
T6 construct: The commercially available pooled human liver microsomes are used as an enzyme resource; from tissue; host or cells: pooled human liver microsomes
The experiment in a line: CYP inhibition test (CYP3A4). The data set is classed as in vitro ADME. Conditions: pooled human liver microsomes; terfenadine hydroxylation. In a few lines:
as §1

The nature of data set [8]: Solubility test. Format: physicochemical. The following applies: kinetic from dmso stock; for solubility kinetic at 16 h: 25 °C. An outline of the steps:
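Dissolved concentration determined by LC/MS or SPE/MS (absolute calibration) in diluted filtrates, after 2 μL of 10 mmol/L DMSO stock was added to 198 μL JP 1st or JP 2nd fluid and equilibrated either 1 h with shaking at room temperature or 16 h standing at 25 °C.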

In data set [9] the target is T7, human ether-a-go-go related gene (hERG) channel (Homo sapiens, UniProt Q12809).
T7 construct: expressed in transfected cells; host or cells: CHO cells
As to the kind of experiment: hERG test. Format: cell-based. The following applies: % inhibition of IKr tail peak current at 3 uM; CHO cells expressing hERG. In a few lines: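 IKr was recorded from hERG-expressing CHO cells by automated whole-cell patch clamp at a holding potential of −80 mV. A −50 mV leak step was followed by a 2 s depolarization to +20 mV and a 2 s repolarization to −50 mV, when current was measured.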
(In general: hERG is a cardiac potassium channel; its block is linked to QT prolongation.)

The nature of data set [10]: Metabolic stability test. The data set is classed as in vitro ADME. The following applies: human liver microsomes, 37° C., 30 minutes, NADPH. An outline of the steps: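 Parent compound was measured by LC/MS/MS or SPE/MS after a methanol/acetonitrile quench and reported as % remaining, with the 0 min sample set to 100%. Incubations ran 30 min at 37 °C in pH 7.4 Tris buffer containing pooled human liver microsomes at 0.5 mg protein/mL and 1 mmol/L NADPH.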

Where [11] appears, read: JP 1st fluid, pH 1.2, simulated gastric fluid, read-out: JP1.
Where [12] appears, read: JP 2nd fluid A, pH 6.8, aqueous buffer, read-out: JP2_μM.

≈ marks a conversion by molar mass, not a printed value. Read-outs that look alike come from different tables or passages of the source.

As usually defined, the IC50 is the concentration needed to halve the response being measured.

T1 sequence (P56817 46-501): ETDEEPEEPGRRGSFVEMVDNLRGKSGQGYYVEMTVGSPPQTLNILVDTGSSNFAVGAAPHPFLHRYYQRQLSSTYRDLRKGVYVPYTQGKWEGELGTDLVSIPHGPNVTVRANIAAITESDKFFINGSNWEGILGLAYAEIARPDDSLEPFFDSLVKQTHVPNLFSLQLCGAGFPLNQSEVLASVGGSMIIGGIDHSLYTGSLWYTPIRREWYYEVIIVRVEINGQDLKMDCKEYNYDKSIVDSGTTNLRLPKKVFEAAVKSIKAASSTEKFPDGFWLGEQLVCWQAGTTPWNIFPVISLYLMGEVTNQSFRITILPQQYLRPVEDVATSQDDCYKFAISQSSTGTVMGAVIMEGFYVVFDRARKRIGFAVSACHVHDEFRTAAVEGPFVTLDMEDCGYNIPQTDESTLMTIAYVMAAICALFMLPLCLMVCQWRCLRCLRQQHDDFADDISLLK
T4 sequence (P33261 whole entry): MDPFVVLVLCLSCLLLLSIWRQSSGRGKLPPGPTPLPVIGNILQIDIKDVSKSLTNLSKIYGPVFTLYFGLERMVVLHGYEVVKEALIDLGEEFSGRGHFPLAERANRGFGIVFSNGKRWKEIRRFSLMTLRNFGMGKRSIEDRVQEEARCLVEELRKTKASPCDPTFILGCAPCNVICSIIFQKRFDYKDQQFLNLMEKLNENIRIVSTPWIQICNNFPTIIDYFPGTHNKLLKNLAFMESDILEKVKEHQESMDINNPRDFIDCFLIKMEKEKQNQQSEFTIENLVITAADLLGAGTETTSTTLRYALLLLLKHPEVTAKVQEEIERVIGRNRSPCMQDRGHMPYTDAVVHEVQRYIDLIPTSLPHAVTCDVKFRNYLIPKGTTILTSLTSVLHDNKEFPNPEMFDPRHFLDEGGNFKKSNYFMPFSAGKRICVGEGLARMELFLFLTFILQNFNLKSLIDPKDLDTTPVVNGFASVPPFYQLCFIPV
T7 sequence (Q12809 whole entry): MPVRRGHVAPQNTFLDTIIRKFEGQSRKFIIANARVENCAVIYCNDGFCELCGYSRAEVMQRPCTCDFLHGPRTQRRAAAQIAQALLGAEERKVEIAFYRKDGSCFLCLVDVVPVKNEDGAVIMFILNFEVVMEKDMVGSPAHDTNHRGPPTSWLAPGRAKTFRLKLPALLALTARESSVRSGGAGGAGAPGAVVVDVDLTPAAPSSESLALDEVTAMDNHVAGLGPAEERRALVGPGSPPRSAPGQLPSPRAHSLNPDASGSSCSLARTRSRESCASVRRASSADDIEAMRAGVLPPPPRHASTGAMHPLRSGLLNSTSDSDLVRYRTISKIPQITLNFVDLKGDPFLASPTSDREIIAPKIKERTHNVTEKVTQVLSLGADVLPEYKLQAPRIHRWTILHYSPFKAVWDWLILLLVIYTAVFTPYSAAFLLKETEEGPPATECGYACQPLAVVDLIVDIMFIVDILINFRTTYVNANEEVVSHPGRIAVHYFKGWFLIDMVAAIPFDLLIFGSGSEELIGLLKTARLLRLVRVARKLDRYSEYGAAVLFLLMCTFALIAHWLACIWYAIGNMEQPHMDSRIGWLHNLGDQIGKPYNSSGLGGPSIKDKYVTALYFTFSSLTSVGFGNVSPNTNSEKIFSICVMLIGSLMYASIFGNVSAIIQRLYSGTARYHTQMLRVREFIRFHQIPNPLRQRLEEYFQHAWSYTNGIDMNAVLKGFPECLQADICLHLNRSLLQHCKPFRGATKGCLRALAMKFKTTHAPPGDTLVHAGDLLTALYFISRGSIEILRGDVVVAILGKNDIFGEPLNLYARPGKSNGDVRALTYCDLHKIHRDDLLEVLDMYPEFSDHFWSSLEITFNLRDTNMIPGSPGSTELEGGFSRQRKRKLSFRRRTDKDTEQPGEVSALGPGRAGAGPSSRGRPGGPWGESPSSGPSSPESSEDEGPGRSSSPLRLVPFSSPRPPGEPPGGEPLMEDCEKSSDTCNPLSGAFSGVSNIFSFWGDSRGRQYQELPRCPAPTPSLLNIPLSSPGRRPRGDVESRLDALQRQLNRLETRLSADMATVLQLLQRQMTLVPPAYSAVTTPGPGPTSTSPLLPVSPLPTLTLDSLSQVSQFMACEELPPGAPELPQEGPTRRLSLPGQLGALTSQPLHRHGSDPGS
T3 sequence (P11712 whole entry): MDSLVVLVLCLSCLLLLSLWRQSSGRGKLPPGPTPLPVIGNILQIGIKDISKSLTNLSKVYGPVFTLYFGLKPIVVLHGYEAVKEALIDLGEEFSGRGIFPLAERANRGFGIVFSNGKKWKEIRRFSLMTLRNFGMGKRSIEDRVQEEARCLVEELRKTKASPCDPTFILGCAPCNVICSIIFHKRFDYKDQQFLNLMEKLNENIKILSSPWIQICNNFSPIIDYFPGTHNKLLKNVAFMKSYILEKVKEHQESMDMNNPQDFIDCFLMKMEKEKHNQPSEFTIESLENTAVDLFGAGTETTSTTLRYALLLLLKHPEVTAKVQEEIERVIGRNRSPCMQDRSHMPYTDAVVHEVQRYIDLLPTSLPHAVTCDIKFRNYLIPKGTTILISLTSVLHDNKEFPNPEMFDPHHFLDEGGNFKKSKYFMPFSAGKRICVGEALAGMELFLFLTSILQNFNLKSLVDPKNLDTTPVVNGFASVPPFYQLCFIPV
T5 sequence (P10635 whole entry): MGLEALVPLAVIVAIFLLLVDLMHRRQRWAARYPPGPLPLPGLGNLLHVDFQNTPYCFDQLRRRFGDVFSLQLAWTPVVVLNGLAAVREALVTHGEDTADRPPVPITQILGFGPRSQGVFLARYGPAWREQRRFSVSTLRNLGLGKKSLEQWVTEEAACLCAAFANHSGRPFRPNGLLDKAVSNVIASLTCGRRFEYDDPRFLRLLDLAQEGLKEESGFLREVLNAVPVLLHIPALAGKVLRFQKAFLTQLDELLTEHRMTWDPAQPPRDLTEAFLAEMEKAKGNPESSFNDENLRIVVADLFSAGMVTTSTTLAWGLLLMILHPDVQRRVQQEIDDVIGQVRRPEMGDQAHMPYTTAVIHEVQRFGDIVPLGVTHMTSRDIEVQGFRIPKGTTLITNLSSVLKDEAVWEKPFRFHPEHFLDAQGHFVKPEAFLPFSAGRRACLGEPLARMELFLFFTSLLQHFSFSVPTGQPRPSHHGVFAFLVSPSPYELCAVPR
T6 sequence (P08684 whole entry): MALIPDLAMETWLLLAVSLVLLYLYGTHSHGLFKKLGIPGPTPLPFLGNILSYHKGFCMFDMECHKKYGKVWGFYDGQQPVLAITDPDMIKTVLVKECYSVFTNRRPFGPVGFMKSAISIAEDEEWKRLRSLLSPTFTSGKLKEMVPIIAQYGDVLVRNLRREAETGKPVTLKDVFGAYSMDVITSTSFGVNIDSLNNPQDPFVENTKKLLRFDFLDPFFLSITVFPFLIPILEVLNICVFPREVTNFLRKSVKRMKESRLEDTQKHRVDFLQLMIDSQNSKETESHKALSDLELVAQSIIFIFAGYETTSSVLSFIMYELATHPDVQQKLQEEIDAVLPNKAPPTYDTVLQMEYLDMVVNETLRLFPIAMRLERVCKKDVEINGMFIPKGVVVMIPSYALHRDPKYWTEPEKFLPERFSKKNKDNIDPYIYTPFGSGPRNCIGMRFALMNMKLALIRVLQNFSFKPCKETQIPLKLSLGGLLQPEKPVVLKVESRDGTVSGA

`CO[C@H]1[C@@H](CF)OC(N)=N[C@]1(C)c1cc(NC(=O)c2ncc(Cl)cc2Cl)ccc1Cl` [Compound I-22]: the 50% inhibitory concentration (IC50) in data set [1] was 23 nM; in data set [2], 4.22 nM; in data set [3], no less than 20 µM; in [4], no less than 20 µM; in data set [5] it was no less than 20 µM; in [6], no less than 10 µM. This compound yielded an IC50 in data set [7] of no less than 20 µM. For the same compound, the figures for the solubility kinetic at 16 h in data set [8] (setting [11]) and in data set [8] (setting [12]) were 31.2 µM (≈ 14.8 µg/mL) and greater than 50 µM, respectively. Also, the “hERG_3 uM_%” value in data set [9] amounted to 14.2%.

For the compound `CO[C@H]1[C@@H](CF)OC(N)=N[C@]1(C)c1cc(NC(=O)c2ccc(Cl)cn2)ccc1F` [Compound I-23], the IC50 in data set [1] was 34.4 nM; in data set [2], 1.53 nM; in [3], no less than 20 µM; in data set [4], no less than 20 µM; in data set [5], no less than 20 µM; in data set [6], no less than 20 µM. The same compound registered a half-inhibitory concentration (IC50) in data set [7] of no less than 20 µM. Moreover, the solubility kinetic at 16 h was 46.7 µM (≈ 19.8 µg/mL) in data set [8] (setting [11]) and greater than 50 µM in [8] (setting [12]). Moreover, the remaining % in data set [10] stood at 86.6%.

For the compound `CO[C@H]1[C@@H](CF)OC(N)=N[C@]1(C)c1cc(NC(=O)c2ncc(Cl)cc2Cl)ccc1F` [Compound I-26], the half-maximal inhibitory concentration (IC50) is 33.9 nM in data set [1]; 1.76 nM in [2]; no less than 20 µM in data set [4]; no less than 20 µM in data set [5]; no less than 20 µM in data set [6]; no less than 20 µM in data set [7]. In addition, the solubility kinetic at 16 h in data set [8] (setting [11]) is 41.9 µM (≈ 19.2 µg/mL); in data set [8] (setting [12]), greater than 50 µM. Moreover, in data set [10], the remaining % is given as 76%. The “hERG_3 uM_%” value in data set [9] is 29.6%.

Consider `CO[C@H]1[C@@H](C(F)(F)F)OC(N)=N[C@]1(C)c1cc(NC(=O)c2ccc(C#N)cn2)ccc1F` [Compound I-34], for which the IC50 in [1] was 16.5 nM; in data set [2], 1.85 nM; in data set [3], no less than 20 µM; in [4], no less than 20 µM; in data set [5], no less than 20 µM; in data set [6] it was no less than 20 µM. For the same compound, in [7], the half-maximal inhibitory concentration (IC50) is no less than 20 µM. Besides, the solubility kinetic at 16 h in data set [8] (setting [11]) was 44.4 µM (≈ 20 µg/mL); in data set [8] (setting [12]) it was greater than 50 µM. Further, in data set [9], the “hERG_3 uM_%” value is recorded as 15.5%.

In the case of `COc1cnc(C(=O)Nc2ccc(F)c([C@@]3(C)N=C(N)O[C@H]4[C@@H]3OCC4(F)F)c2)cn1` [Compound I-36], the half-inhibitory concentration (IC50) in [1] was 22 nM; in data set [2], 2.29 nM; in data set [3], no less than 20 µM; in data set [4], no less than 20 µM; in [5] it was no less than 20 µM; in [6] it was no less than 20 µM. The IC50 in [7] is no less than 20 µM. For the same compound, the solubility kinetic at 1 h in [8] (setting [11]) is 37.6 µM (≈ 16.4 µg/mL); in data set [8] (setting [12]), 15.9 µM (≈ 6.95 µg/mL). The “hERG_3 uM_%” value in [9] was determined as 29.9%.

`C[C@]1(c2cc(NC(=O)c3ccc(C#N)cn3)ccc2F)N=C(N)OCC12CC(F)(F)C2` [Compound I-43]: the half-maximal inhibitory concentration (IC50) in data set [1] was 21.8 nM; in data set [2], 0.615 nM; in data set [3] it was no less than 20 µM; in data set [4], no less than 20 µM; in data set [5] it was no less than 20 µM; in [6], no less than 20 µM. This compound also had an IC50 in [7] of no less than 20 µM. Further, the solubility kinetic at 16 h is 29.9 µM (≈ 12.8 µg/mL) in data set [8] (setting [11]) and greater than 50 µM in [8] (setting [12]). The remaining % in data set [10] amounted to 84.5%.
